Experimental data taken from US20220089593A1, “PDE9 INHIBITOR AND USE THEREOF” (TRANSTHERA SCIENCES (NANJING), INC., priority 2019, published 2022).

target: T1, PDE9A2 enzyme (Homo sapiens, UniProt O76083); experiment: PDE9 enzymatic evaluation; type: biochemical; conditions: PDE9A2 enzyme (BPS), fluorescence reading 480 nm/535 nm, room temperature
T1 construct: purchased BPS 60090
T1 sequence (O76083 1-533 isoform O76083-2): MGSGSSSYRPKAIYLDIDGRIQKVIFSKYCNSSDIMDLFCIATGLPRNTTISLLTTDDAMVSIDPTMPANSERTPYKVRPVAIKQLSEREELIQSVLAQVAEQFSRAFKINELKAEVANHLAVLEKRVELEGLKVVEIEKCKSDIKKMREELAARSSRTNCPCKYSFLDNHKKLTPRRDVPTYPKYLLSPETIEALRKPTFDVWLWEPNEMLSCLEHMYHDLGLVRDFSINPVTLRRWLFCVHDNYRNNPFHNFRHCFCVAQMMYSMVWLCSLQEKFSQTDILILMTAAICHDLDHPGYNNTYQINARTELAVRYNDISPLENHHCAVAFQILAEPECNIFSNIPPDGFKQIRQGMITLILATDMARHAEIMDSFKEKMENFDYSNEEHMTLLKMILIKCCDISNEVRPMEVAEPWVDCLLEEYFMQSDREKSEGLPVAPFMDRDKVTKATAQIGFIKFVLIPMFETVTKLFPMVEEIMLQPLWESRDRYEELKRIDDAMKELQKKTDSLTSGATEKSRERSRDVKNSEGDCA

Row | SMILES | IC50 [nM]
1 | COC1(C)CCN(c2c(C#N)c(=O)[nH]c3cnc(C(C)C)cc23)CC1 [Compound 163, 6-isopropyl-4-(4-methoxy-4-methylpiperidin-1-yl)-2-oxo-1,2-dihydro-1,7-naphthyridine-3-carbonitrile] | 50
2 | CC1(C)CCN(c2c(C#N)c(=O)[nH]c3ccccc23)CC1 [Compound I-11, reference compound] | 70

Other lines, results leading:

Row | IC50 [nM] | SMILES
3 | 24 | COC1(C)CCN(c2c(C#N)c(=O)[nH]c3cccnc23)CC1 [Compound 165, 4-(4-methoxy-4-methylpiperidin-1-yl)-2-oxo-1,2-dihydro-1,5-naphthyridine-3-carbonitrile]
4 | 19 | COC1(C)CCN(c2c(C#N)c(=O)[nH]c3ccc(C)nc23)CC1 [Compound 166, 4-(4-methoxy-4-methylpiperidin-1-yl)-6-methyl-2-oxo-1,2-dihydro-1,5-naphthyridine-3-carbonitrile]
5 | 11 | CCc1ccc2[nH]c(=O)c(C#N)c(N3CCC(C)(OC)CC3)c2n1 [Compound 167, 6-ethyl-4-(4-methoxy-4-methylpiperidin-1-yl)-2-oxo-1,2-dihydro-1,5-naphthyridine-3-carbonitrile]
6 | 15 | COC1(C)CCN(c2c(C#N)c(=O)[nH]c3cnc(CO)cc23)CC1 [Compound 177, 6-(hydroxymethyl)-4-(4-methoxy-4-methylpiperidin-1-yl)-2-oxo-1,2-dihydro-1,7-naphthyridine-3-carbonitrile]
7 | 37 | CC(O)c1cc2c(N3CCC(C)(O)CC3)c(C#N)c(=O)[nH]c2cn1 (stereo not shown) [Compound 194, 4-(4-hydroxy-4-methylpiperidin-1-yl)-6-(1-hydroxyethyl)-2-oxo-1,2-dihydro-1,7-naphthyridine-3-carbonitrile]

tested on: not listed separately; experiment: Dog liver microsomal stability; type: in vitro ADME; conditions: dog liver microsomes 0.5 mg protein/mL, compound 1 μM, β-NADPH 1 mM, 37° C.
Procedure: Test samples: the compounds disclosed herein and the compound 1-8 of patent WO2017019723A1 (prepared by referring to the examples for synthesis in WO2017019723A1) having the following structural formula: […]
An appropriate amount of the compound was precisely weighed out and dissolved in DMSO to prepare a 5.0 mM stock solution. The 5.0 mM stock solution was diluted to 1.0 mM with DMSO, and then diluted with water to 10 μM compound working solution for later use (DMSO content in the reaction system: 0.1% v/v).
Vd=1/protein content in liver microsomes

Row | half-life at 1 μM [h] | microsomal CLint at 1 μM [µL/min/mg] | SMILES
8 | 14.4 | 1.6 | COC1(C)CCN(c2c(C#N)c(=O)[nH]c3cnc([C@H](C)O)cc23)CC1 (single isomer, unassigned) [Compound B, 6-(1-hydroxyethyl)-4-(4-methoxy-4-methylpiperidin-1-yl)-2-oxo-1,2-dihydro-1,7-naphthyridine-3-carbonitrile]
9 | 6.8 | 3.4 | COC1(C)CCN(c2c(C#N)c(=O)[nH]c3ccc(C)nc23)CC1 [Compound 166, 4-(4-methoxy-4-methylpiperidin-1-yl)-6-methyl-2-oxo-1,2-dihydro-1,5-naphthyridine-3-carbonitrile]
10 | 2.32 | 10 | CCc1ccc2[nH]c(=O)c(C#N)c(N3CCC(C)(OC)CC3)c2n1 [Compound 167, 6-ethyl-4-(4-methoxy-4-methylpiperidin-1-yl)-2-oxo-1,2-dihydro-1,5-naphthyridine-3-carbonitrile]
11 | 8.25 | 2.8 | COC1(C)CCN(c2c(C#N)c(=O)[nH]c3cnc(C(C)OP(=O)([O-])[O-])cc23)CC1.[Na+].[Na+] (stereo not shown) [Compound 204]
12 | 0.2 | 116 | N#Cc1c(N2CCCCCC2)c2ccccc2[nH]c1=O [Compound I-8, reference compound]

target: human PDE9 (Homo sapiens, UniProt O76083); experiment: not given; conditions: background statement; cited from earlier work
Sequence (O76083 whole entry): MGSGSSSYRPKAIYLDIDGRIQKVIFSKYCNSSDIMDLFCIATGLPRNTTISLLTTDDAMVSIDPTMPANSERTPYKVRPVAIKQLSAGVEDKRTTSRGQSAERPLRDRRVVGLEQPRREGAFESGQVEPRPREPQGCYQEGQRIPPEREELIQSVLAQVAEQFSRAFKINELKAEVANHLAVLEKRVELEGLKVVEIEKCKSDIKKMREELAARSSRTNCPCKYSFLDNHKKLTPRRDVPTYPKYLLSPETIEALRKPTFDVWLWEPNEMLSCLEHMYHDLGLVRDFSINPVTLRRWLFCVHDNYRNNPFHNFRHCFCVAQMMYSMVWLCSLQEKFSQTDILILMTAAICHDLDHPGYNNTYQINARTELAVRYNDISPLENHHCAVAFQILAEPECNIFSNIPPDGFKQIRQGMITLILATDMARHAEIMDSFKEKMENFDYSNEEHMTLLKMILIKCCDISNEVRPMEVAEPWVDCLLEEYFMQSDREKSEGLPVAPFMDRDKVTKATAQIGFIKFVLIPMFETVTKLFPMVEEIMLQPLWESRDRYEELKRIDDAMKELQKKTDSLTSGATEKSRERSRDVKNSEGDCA

Row | SMILES | inhibitory activity against PDE9
13 | CC(C)Cn1c(=O)n(C)c(=O)c2[nH]cnc21 [IBMX] | no inhibitory activity or low inhibitory activity
14 | CC(=O)Nc1ccc(-c2c[nH]c(=O)cn2)cc1 [SKF94120] | no inhibitory activity or low inhibitory activity
15 | OCCN(CCO)c1nc(N2CCCCC2)c2nc(N(CCO)CCO)nc(N3CCCCC3)c2n1 [dipyridamole] | no inhibitory activity or low inhibitory activity
16 | COc1ccc(C2CNC(=O)C2)cc1OC1CCCC1 (stereo not shown) [rolipram] | no inhibitory activity or low inhibitory activity
17 | CCOC(=O)C1=C[C@]2(CC)CCCN3CCc4c(n1c1ccccc41)[C@@H]32 [vinpocetine] | no inhibitory activity or low inhibitory activity
